Test results published in patent US7625713B2, “Process for identifying a ligand that binds to the NEP binding site for the SMR1 pentapeptide” (Institut Pasteur, priority 2000, dated 2009).
Where a SMILES comes first, the peptide text is derived from it.

Assays:
[1] = molecular target: T1, NEP (Rattus norvegicus, UniProt P07861); test: Substance P endoproteolysis by rat peripheral tissue membrane preparations; format: biochemical
T1 construct: peripheral tissue membrane preparations that are known to be enriched in NEP-peptidase; from tissue; host or cells: rat renal outer medulla/kidney, intestine mucosa, placenta, prostate, dental and bone tissues, submandibular gland (membrane preparations)
T1 sequence (P07861 2-750): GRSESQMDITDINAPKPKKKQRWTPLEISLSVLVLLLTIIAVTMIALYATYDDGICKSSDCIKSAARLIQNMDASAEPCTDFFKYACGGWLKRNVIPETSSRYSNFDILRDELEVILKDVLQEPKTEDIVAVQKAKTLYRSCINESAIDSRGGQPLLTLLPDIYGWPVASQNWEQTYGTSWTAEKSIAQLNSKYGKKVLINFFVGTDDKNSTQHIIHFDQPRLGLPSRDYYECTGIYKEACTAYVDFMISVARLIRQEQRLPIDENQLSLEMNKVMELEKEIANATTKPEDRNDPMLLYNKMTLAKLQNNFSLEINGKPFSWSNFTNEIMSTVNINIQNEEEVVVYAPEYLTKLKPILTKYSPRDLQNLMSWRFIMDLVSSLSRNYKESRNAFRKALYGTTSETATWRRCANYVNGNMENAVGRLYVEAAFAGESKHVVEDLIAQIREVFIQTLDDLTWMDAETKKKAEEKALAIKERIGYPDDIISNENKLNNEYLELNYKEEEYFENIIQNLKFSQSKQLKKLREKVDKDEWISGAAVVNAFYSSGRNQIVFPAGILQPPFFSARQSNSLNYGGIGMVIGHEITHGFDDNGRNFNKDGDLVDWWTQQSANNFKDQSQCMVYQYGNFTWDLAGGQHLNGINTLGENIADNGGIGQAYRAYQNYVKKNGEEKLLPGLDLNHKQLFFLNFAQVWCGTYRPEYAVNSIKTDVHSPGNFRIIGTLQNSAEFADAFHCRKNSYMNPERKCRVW
Description: FIG. 4-A: Endopeptidase activity of the tissue membrane preparations was determined using 25 nM [3H] substanceP, in the presence of 10 μM bestatin. The enzymatic specific activity expressed in pM/min/μg membrane protein is done in the absence and in the presence of 10 μM sialorphin or NEP inhibitors (10 μM phosphoramidon or 1 μM thiorphan).
FIG. 4-B: Concentration-dependent inhibition by sialorphin of [3H] substanceP catabolism by rat renal membrane preparations. Each point represents the percentage of […] intact [3H] substanceP recovered and calculated as percentage of velocity without inhibitor−velocity in presence of inhibitor/velocity without inhibitor, and (*) represents the mean±SD of four determinations. Sialorphin concentration is expressed in nM and plotted on a log scale in B right. The protein concentration of membrane enzyme were defined according to conditions of measurement of initial velocity.
The same approach was applied to peripheral tissue membrane preparations that are known to be enriched in NEP-peptidase and/or to be targets for sialorphin, in vivo, i.e., renal outer medulla, intestine mucosa, placenta, prostate, dental and bone tissues, as well as submandibular epithelium (Rougeot, C. et al, American Journal of Physiology, (1997) 273, R1309-20; Sales et al., (1991) Regulatory Peptides 33, 209-22) and reviewed by Kenny et al., (1987), Mammalian ectoenzymes 169-210. There is evidence that, almost all these tissues contain substance P released from peripheral parasympathetic and sensory nerve terminals acting near the site of release on target cells that contain the neurokinin receptors to modulate the particular tissue function (McCarson et al., (1999), Neuroscience 93, 361-70). Thus, it appeared that the neuropeptide could be regarded as a relevant biologically NEP substrate at the periphery. However, substance P is cleaved potently by NEP and ACE membrane-bound peptidases, and both enzymes are highly distributed in the renal epithelium (Skidgel et al., (1985), Progress in Clinical & Biological Research 192, 371-8).
The specificity of the peptidase assay was assessed by testing the inhibitory efficacy of selective peptidase inhibitors (at 1-10 μM final concentration to induce maximum inhibitory response) on the endoproteolysis of 3H substance P by the various tissue-membrane enzymes, and by analysing the selective formation of the NEP-related tritiated product of the reaction that was defined, as above using spinal tissue. In addition, under standard conditions of initial velocity measurement, bestatin (10 μM) was added in the incubation medium to prevent unselectively the membrane aminopeptidase activities.

[2] = Chelating-FPLC analyses; format: physicochemical
Source text: Otherwise, tissue-uptake of the sialorphin peptide involves a complex molecular species, including a cation mineral element, as the peptide was only recovered in the presence of a strong divalent metal ion chelating agent (Rougeot, C. et al. (1997), American Journal of Physiology 273, […]-20). […] The zinc ion, an essential component of the NEP catalytic site, is a common target of synthetic potent NEP inhibitors described elsewhere.

inhibitory efficacy on ectopeptidase-sensitive substance P degradation ([1]; inner bone tissues, n=4): 75±10%
inhibition at 10 µM ([1]; male rat kidney membranes, 25 nM [3H] substance P, 10 μM bestatin, 10 μM sialorphin, n=9, read-out: inhibition of renal membrane substance-P-hydrolytic activity (maximum inhibitory response)): 60 ± 5%
protection of exogenous 3H substance P from catabolic process ([1]; membrane fractions of the rat intestine): 87±17%
inhibition of substance-P-hydrolytic activity ([1]; rat SMG (submandibular gland) membranes): 79%
reduction of 3H-substance P catabolic process ([1]; rat inner dental tissue membranes, inhibitors at 1-10 μM (sialorphin 10 μM)): 39±14%
decrease of substance P degradation ([1]; rat placenta and prostate tissue membranes, 10 μM): 70±3%
IC50 ([1]; rat renal membrane preparations, read-out: IC50 on 3H substance-P degradation by rat kidney): 500 to 1000 nM
Compound: N=C(N)NCCC[C@H](NC(=O)[C@@H]1CCCN1C(=O)[C@H](CC(N)=O)NC(=O)[C@H](Cc1c[nH]cn1)NC(=O)[C@@H](N)CCC(N)=O)C(=O)O [sialorphin, Gln-His-Asn-Pro-Arg] (H-QHNPR-OH; N-terminus and C-terminus assumed)
zinc-chelating property [2]: selective and strong zinc-chelating group
